Experiments:
Test in all cases: KinaseProfiler off-target kinase profiling
Format in all cases: biochemical
Details in all cases: 10 μM, ATP near Km
Rsk2 = Rsk2 (Homo sapiens (Human), UniProt P51812)
Experimental: (§1) Representative compounds (Examples 12, 32, 26 and 2) of the invention were tested for off-target kinase activity at a concentration of 10 μM by Millipore, Inc. in their KinaseProfiler™ service against all the kinases available in their full kinase panel. Compounds were run in duplicate at a concentration of ATP near the Km for each individual kinase according to Millipore's specifications. The results are shown in Table B. Data are reported as percent of control (POC) and are the average of the two replicates.

Lyn = Lyn (Homo sapiens (Human), UniProt P07948)
Experimental: as §1

TAO2 = TAO2 (Homo sapiens (Human), UniProt Q9UL54)
Experimental: as §1

PAK2 = PAK2 (Homo sapiens (Human), UniProt Q13177)
Experimental: as §1

NEK3 = NEK3 (Homo sapiens (Human), UniProt P51956)
Experimental: as §1

LOK = LOK (Homo sapiens (Human), UniProt O94804)
Experimental: as §1

BTK = BTK (Homo sapiens (Human), UniProt Q06187)
Experimental: as §1

CK2alpha2 = CK2alpha2 (Homo sapiens (Human), UniProt P19784)
Experimental: as §1

HIPK3 = HIPK3 (Homo sapiens (Human), UniProt Q9H422)
Experimental: as §1

IRR = IRR (Homo sapiens (Human), UniProt P14616)
Experimental: as §1

GRK5 = GRK5 (Homo sapiens (Human), UniProt P34947)
Experimental: as §1

JNK2alpha2 = JNK2alpha2 (Homo sapiens (Human), UniProt P45984)
Experimental: as §1

CDK2/cyclinA = CDK2/cyclinA (Homo sapiens (Human), UniProt P24941)
Experimental: as §1

DAPK3 = DAPK3 (Homo sapiens (Human), UniProt O43293)
Experimental: as §1

CSK = CSK (Homo sapiens (Human), UniProt P41240)
Experimental: as §1

Axl = Axl (Homo sapiens (Human), UniProt P30530)
Experimental: as §1

EphA4 = EphA4 (Homo sapiens (Human), UniProt P54764)
EphA4, sequence (P54764 20-986): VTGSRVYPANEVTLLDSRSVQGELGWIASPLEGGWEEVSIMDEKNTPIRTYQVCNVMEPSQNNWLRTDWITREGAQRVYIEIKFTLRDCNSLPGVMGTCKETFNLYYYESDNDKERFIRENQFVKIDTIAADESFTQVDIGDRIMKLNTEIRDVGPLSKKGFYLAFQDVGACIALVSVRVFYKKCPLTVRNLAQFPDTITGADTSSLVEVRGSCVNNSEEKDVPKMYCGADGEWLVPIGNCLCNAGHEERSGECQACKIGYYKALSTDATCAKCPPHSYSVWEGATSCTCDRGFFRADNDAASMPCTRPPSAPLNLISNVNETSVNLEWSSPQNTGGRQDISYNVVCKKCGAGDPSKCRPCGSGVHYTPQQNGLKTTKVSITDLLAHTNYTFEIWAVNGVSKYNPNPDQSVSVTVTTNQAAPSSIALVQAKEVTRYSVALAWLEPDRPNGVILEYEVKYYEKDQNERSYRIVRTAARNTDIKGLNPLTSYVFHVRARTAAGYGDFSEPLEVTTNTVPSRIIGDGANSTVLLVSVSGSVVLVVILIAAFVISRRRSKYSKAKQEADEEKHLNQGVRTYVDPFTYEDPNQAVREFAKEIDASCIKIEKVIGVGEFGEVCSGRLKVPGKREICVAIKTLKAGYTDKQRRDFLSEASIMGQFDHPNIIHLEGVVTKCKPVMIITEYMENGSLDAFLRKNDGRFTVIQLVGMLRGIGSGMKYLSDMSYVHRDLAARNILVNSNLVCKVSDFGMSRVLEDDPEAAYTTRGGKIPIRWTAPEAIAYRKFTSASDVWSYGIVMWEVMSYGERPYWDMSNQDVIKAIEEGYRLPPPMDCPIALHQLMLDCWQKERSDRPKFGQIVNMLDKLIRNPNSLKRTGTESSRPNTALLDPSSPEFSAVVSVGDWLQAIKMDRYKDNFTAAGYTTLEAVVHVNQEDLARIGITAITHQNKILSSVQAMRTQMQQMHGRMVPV
Experimental: as §1

CK1delta = CK1delta (Homo sapiens (Human), UniProt P48730)
Experimental: as §1

KDR = KDR (Homo sapiens (Human), UniProt P35968)
Experimental: as §1

PKD1 = PKD1 (Homo sapiens (Human), UniProt Q15139)
Experimental: as §1

PKCtheta = PKCtheta (Homo sapiens (Human), UniProt Q04759)
PKCtheta, sequence (Q04759 whole entry): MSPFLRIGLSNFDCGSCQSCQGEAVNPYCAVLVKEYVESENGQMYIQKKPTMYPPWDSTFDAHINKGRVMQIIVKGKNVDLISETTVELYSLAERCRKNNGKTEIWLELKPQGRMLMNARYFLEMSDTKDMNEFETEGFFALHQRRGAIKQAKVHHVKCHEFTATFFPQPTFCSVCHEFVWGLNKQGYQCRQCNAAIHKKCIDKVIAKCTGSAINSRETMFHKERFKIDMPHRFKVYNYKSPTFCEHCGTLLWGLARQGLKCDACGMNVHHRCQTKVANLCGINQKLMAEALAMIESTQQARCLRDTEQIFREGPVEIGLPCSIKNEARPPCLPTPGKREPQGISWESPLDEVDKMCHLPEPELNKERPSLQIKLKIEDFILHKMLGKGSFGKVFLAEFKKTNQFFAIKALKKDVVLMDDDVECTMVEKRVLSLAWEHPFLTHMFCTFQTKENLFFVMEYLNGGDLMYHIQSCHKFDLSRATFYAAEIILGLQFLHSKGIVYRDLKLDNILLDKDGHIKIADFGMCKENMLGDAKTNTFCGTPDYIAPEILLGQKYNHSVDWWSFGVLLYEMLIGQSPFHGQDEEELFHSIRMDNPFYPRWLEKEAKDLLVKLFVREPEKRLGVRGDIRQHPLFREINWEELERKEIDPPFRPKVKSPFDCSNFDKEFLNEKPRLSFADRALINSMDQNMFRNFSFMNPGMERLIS
Experimental: as §1

DDR2 = DDR2 (Homo sapiens (Human), UniProt Q16832)
Experimental: as §1

CDK2/cyclinE = CDK2/cyclinE (Homo sapiens (Human), UniProt P24941)
Experimental: as §1

EphA1 = EphA1 (Homo sapiens (Human), UniProt P21709)
Experimental: as §1

AMPK(A1/B1/G1) = AMPK(A1/B1/G1) (Homo sapiens (Human), UniProt Q13131)
Experimental: as §1

MAPKAP-K5 = MAPKAP-K5 (Homo sapiens (Human), UniProt Q8IW41)
Experimental: as §1

TAK1 = TAK1 (Homo sapiens (Human), UniProt O43318)
Experimental: as §1

Plk1 = Plk1 (Homo sapiens (Human), UniProt P53350)
Plk1, sequence (P53350 whole entry): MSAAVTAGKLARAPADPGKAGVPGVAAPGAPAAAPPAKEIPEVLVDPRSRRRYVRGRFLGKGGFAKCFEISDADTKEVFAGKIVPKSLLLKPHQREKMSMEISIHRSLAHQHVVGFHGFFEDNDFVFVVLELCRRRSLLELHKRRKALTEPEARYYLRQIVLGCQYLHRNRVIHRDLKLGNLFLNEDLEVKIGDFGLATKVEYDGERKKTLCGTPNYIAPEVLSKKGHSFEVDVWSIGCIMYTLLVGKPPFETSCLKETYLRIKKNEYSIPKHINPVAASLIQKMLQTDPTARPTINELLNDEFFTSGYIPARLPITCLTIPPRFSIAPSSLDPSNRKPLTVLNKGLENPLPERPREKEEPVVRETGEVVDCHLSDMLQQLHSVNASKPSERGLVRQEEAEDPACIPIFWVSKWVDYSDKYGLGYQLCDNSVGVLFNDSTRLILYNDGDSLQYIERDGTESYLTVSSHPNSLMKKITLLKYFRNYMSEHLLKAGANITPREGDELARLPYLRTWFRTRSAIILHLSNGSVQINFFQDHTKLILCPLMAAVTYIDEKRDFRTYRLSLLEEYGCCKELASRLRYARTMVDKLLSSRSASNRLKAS
Experimental: as §1

EphA7 = EphA7 (Homo sapiens (Human), UniProt Q15375)
Experimental: as §1

PhKgamma2 = PhKgamma2 (Homo sapiens (Human), UniProt P15735)
PhKgamma2, sequence (P15735 whole entry): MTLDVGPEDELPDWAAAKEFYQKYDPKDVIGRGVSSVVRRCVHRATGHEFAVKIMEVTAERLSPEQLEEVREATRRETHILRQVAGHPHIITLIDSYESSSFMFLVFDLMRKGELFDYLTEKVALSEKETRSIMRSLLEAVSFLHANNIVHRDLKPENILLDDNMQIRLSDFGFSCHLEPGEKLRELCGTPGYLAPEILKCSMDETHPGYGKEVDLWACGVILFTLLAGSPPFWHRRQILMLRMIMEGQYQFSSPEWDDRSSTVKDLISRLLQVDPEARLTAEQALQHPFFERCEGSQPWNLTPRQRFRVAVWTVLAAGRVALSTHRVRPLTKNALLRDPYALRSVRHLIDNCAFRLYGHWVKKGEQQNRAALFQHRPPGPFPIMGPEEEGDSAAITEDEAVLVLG
Experimental: as §1

MKK6 = MKK6 (Homo sapiens (Human), UniProt P52564)
Experimental: as §1

BrSK1 = BrSK1 (Homo sapiens (Human), UniProt Q8TDC3)
Experimental: as §1

CAMK1 = CAMK1 (Homo sapiens (Human), UniProt Q14012)
Experimental: as §1

MAP3K5 = MAP3K5 (Homo sapiens (Human), UniProt Q99683)
Experimental: as §1

NEK2 = NEK2 (Homo sapiens (Human), UniProt P51955)
NEK2, sequence (P51955 whole entry): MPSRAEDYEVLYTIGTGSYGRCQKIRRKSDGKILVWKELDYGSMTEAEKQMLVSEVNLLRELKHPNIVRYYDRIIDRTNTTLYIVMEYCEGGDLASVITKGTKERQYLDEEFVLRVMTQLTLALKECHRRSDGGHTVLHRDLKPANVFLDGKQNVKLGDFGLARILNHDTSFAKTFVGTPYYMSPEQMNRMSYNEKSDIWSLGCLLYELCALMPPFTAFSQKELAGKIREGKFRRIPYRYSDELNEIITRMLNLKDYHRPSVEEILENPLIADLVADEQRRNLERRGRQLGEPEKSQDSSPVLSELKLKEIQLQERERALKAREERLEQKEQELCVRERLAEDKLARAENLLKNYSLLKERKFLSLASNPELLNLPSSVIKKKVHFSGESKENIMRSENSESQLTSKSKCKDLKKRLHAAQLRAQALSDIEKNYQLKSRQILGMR
Experimental: as §1

PKCepsilon = PKCepsilon (Homo sapiens (Human), UniProt Q02156)
Experimental: as §1

EphB2 = EphB2 (Homo sapiens (Human), UniProt P29323)
Experimental: as §1

Yes = Yes (Homo sapiens (Human), UniProt P07947)
Yes, sequence (P07947 whole entry): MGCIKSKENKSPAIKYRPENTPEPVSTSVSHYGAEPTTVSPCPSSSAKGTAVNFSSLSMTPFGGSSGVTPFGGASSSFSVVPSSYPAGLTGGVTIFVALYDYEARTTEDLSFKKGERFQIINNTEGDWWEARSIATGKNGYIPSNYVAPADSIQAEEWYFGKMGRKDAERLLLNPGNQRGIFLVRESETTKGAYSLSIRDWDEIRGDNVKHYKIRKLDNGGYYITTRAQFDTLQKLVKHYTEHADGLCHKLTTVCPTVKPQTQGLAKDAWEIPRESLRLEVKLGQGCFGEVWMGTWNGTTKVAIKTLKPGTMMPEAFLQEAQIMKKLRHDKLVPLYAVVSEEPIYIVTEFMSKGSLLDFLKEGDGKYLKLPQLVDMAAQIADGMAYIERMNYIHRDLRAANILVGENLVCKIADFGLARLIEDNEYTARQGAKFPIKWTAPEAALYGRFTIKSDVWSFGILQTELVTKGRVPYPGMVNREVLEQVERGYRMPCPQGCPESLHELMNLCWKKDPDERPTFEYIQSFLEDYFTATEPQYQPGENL
Experimental: as §1

Ron = Ron (Homo sapiens (Human), UniProt Q04912)
Ron, sequence (Q04912 25-1400): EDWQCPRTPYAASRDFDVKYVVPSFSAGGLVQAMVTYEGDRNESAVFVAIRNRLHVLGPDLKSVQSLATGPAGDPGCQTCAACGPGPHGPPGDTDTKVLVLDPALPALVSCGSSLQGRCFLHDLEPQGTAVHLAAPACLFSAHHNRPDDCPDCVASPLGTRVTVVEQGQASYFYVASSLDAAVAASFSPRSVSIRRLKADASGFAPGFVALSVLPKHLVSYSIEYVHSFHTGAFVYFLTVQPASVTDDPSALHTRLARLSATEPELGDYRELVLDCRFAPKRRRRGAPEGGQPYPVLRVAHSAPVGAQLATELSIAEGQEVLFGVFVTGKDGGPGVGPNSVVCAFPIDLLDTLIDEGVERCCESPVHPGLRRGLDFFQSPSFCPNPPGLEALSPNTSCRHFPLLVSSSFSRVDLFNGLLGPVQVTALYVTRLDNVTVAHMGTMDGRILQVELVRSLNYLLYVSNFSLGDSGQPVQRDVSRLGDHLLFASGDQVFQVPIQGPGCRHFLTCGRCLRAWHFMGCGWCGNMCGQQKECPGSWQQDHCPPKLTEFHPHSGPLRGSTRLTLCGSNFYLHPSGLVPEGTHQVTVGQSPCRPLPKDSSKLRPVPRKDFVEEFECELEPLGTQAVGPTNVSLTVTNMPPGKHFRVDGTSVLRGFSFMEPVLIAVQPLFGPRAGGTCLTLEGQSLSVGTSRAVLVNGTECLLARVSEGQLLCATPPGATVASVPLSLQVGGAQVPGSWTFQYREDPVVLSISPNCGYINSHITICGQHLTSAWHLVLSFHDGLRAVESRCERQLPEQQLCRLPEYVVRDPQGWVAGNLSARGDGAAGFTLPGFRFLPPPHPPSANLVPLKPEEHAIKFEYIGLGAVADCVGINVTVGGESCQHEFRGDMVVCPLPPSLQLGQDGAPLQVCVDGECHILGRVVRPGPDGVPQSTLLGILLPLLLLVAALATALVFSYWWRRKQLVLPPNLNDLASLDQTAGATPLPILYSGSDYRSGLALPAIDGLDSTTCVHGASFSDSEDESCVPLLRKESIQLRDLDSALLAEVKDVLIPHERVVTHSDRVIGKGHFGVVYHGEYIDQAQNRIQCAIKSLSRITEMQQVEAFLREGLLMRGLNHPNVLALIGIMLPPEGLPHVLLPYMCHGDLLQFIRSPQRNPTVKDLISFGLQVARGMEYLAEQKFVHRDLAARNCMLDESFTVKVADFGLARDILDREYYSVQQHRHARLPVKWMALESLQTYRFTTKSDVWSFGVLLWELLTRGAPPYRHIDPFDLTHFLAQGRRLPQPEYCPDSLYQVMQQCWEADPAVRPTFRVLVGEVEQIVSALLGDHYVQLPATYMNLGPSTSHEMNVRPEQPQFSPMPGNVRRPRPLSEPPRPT
Experimental: as §1

Avg. POC (Rsk2)	Avg. POC (Lyn)	Avg. POC (TAO2)	Avg. POC (PAK2)	Avg. POC (NEK3)	Avg. POC (LOK)	Avg. POC (BTK)	Avg. POC (CK2alpha2)	Avg. POC (HIPK3)	Avg. POC (IRR)	Avg. POC (GRK5)	Avg. POC (JNK2alpha2)	Avg. POC (CDK2/cyclinA)	Avg. POC (DAPK3)	Avg. POC (CSK)	Avg. POC (Axl)	Avg. POC (EphA4)	Avg. POC (CK1delta)	Avg. POC (KDR)	Avg. POC (PKD1)	SMILES	further results
137 POC	115 POC	110 POC	104 POC	105 POC	109.5 POC	111.5 POC	125 POC	119.5 POC	2.5 POC	106.5 POC	103.5 POC	127 POC	125.5 POC	124 POC	113.5 POC	111.5 POC	117.5 POC	123.5 POC	110.5 POC	Cc1c(-c2cnn(C)c2)nn(-c2ccccc2)c1NC(=O)N[C@H]1CCCc2ccccc21 [Example 2, (S)-1-(1′,4-dimethyl-1-phenyl-1H,1′H-3,4′-bipyrazol-5-yl)-3-(1,2,3,4-tetrahydronaphthalen-1-yl)urea]	Avg. POC (PKCtheta): 101 POC; Avg. POC (DDR2): 113 POC; Avg. POC (CDK2/cyclinE): 116.5 POC; Avg. POC (EphA1): 85 POC; Avg. POC (AMPK(A1/B1/G1)): 152.5 POC; Avg. POC (MAPKAP-K5): 113.5 POC; Avg. POC (TAK1): 106 POC; Avg. POC (Plk1): 95 POC; Avg. POC (EphA7): 116 POC; Avg. POC (PhKgamma2): 113 POC; Avg. POC (MKK6): 130 POC; Avg. POC (BrSK1): 119 POC; Avg. POC (CAMK1): 109.5 POC; Avg. POC (MAP3K5): 105 POC; Avg. POC (NEK2): 104 POC; Avg. POC (PKCepsilon): 101.5 POC; Avg. POC (EphB2): 125 POC; Avg. POC (Yes): 132.5 POC; Avg. POC (Ron): 106.5 POC
103 POC	104.5 POC	121 POC	97 POC	102 POC	116 POC	127 POC	107.5 POC	102.5 POC	91 POC	83.5 POC	96 POC	112 POC	103 POC	131.5 POC	106 POC	114.5 POC	109.5 POC	119.5 POC	115 POC	Cc1c(-c2cnn(C)c2)nn(-c2ccccc2)c1NC(=O)NC1CCOc2cc(F)ccc21 (stereo not drawn) [Example 12, 1-(1′,4-dimethyl-1-phenyl-1H,1′H-[3,4′-bipyrazol]-5-yl)-3-(7-fluorochroman-4-yl)urea]	Avg. POC (PKCtheta): 117.5 POC; Avg. POC (DDR2): 107 POC; Avg. POC (CDK2/cyclinE): 96.5 POC; Avg. POC (EphA1): 100 POC; Avg. POC (AMPK(A1/B1/G1)): 117 POC; Avg. POC (MAPKAP-K5): 96 POC; Avg. POC (TAK1): 97 POC; Avg. POC (Plk1): 98.5 POC; Avg. POC (EphA7): 96.5 POC; Avg. POC (PhKgamma2): 110 POC; Avg. POC (MKK6): 123 POC; Avg. POC (BrSK1): 111.5 POC; Avg. POC (CAMK1): 102 POC; Avg. POC (MAP3K5): 111 POC; Avg. POC (NEK2): 91.5 POC; Avg. POC (PKCepsilon): 97.5 POC; Avg. POC (EphB2): 112 POC; Avg. POC (Yes): 119.5 POC; Avg. POC (Ron): 116.5 POC
105.5 POC	110.5 POC	111 POC	99.5 POC	105 POC	109 POC	139 POC	114 POC	111 POC	89 POC	86 POC	104 POC	114.5 POC	103 POC	118.5 POC	107 POC	110 POC	121.5 POC	144.5 POC	113.5 POC	Cc1c(-c2ccc(=O)n(C)c2)nn(-c2ccccc2)c1NC(=O)NC1CN(CC(F)(F)F)Cc2ccccc21 (stereo not drawn) [Example 26, 1-(4-methyl-3-(1-methyl-6-oxo-1,6-dihydropyridin-3-yl)-1-phenyl-1H-pyrazol-5-yl)-3-(2-(2,2,2-trifluoroethyl)-1,2,3,4-tetrahydroisoquinolin-4-yl)urea]	Avg. POC (PKCtheta): 109 POC; Avg. POC (DDR2): 111 POC; Avg. POC (CDK2/cyclinE): 97.5 POC; Avg. POC (EphA1): 101 POC; Avg. POC (AMPK(A1/B1/G1)): 122.5 POC; Avg. POC (MAPKAP-K5): 101.5 POC; Avg. POC (TAK1): 108.5 POC; Avg. POC (Plk1): 108 POC; Avg. POC (EphA7): 108 POC; Avg. POC (PhKgamma2): 108.5 POC; Avg. POC (MKK6): 121.5 POC; Avg. POC (BrSK1): 105.5 POC; Avg. POC (CAMK1): 106 POC; Avg. POC (MAP3K5): 116.5 POC; Avg. POC (NEK2): 100.5 POC; Avg. POC (PKCepsilon): 106.5 POC; Avg. POC (EphB2): 109.5 POC; Avg. POC (Yes): 117.5 POC; Avg. POC (Ron): 101 POC
92.5 POC	106.5 POC	104 POC	108.5 POC	113 POC	103.5 POC	119 POC	104 POC	107 POC	109.5 POC	90 POC	102.5 POC	118 POC	111 POC	123 POC	119.5 POC	103 POC	135.5 POC	129 POC	98.5 POC	COCc1ccc2c(c1)C(NC(=O)Nc1c(C)c(-c3cnn(C)c3)nn1-c1ccccc1)COC2 (stereo not drawn) [Example 32, 1-(1′,4-dimethyl-1-phenyl-1H,1′H-[3,4′-bipyrazol]-5-yl)-3-(6-(methoxymethyl)isochroman-4-yl)urea]	Avg. POC (PKCtheta): 117 POC; Avg. POC (DDR2): 116 POC; Avg. POC (CDK2/cyclinE): 106 POC; Avg. POC (EphA1): 114 POC; Avg. POC (AMPK(A1/B1/G1)): 138.5 POC; Avg. POC (MAPKAP-K5): 108 POC; Avg. POC (TAK1): 99.5 POC; Avg. POC (Plk1): 108 POC; Avg. POC (EphA7): 100.5 POC; Avg. POC (PhKgamma2): 102.5 POC; Avg. POC (MKK6): 134.5 POC; Avg. POC (BrSK1): 114.5 POC; Avg. POC (CAMK1): 100 POC; Avg. POC (MAP3K5): 116 POC; Avg. POC (NEK2): 108 POC; Avg. POC (PKCepsilon): 97.5 POC; Avg. POC (EphB2): 96.5 POC; Avg. POC (Yes): 114.5 POC; Avg. POC (Ron): 107 POC
